Where a SMILES comes first, the peptide text is derived from it. [ ]: non-standard residue; d: D form. Lys(Me3) = C[N+](C)(C)CCCC[C@H](N)C(=O)O A value given as a limit tells only on which side of the number the result lay.

Data on 15 compounds can be found in ChEMBL document CHEMBL4732117, “Small Molecule Approaches for Targeting the Polycomb Repressive Complex 2 (PRC2) in Cancer” (J Med Chem, 2020).

In one data set the test system is CT26. The data set can be described thus: Antitumor activity against mouse CT26 cells implanted in NOD/SCID mouse assessed as tumor growth inhibition at 30 mg/kg, PO relative to control. Type of data set: functional. The conditions noted are these: read-out: TGI.
A further data set concerns KARPAS-422. The data set can be described thus: Antiproliferative activity against human Karpas422 cells after 14 days by celltiter-glo luminescent cell viability assay. Type of data set: functional. The conditions noted are these: KARPAS-422, 336 h, time 14 day. (In general: Cellular ATP, detected with luciferase, serves as a proxy for viable cell number.)
A short description of data set [1]: Drug concentration in cytoplasm of human G401 cells assessed per million cells at 10 uM incubated for 2 hrs by UPLC-MS analysis. Type of data set: ADME, subcellular. The conditions noted are these: g-401, 2 h.
For data set [2], the target named is T1, Polycomb protein EED (Homo sapiens, UniProt O75530). The data set can be described thus: Binding affinity to human N-terminal His6-tagged/thrombin cleavage site fused/ AVI-tagged EED (1 to 441 residues) expressed in Escherichia coli BL21(DE3) cells by surface plasmon resonance method.
T1 sequence (O75530 whole entry, the tested form may be a part): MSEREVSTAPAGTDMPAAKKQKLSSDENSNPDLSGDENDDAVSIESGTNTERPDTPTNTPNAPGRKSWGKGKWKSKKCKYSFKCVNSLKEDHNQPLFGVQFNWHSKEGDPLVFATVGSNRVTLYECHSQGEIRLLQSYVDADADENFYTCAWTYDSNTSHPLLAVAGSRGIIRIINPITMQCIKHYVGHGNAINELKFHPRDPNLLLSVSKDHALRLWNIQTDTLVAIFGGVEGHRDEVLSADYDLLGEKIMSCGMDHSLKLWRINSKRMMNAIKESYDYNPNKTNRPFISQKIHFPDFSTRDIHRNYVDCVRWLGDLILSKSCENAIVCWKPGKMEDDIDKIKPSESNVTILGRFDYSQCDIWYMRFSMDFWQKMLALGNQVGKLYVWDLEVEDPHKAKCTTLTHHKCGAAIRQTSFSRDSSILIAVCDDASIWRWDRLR
The nature of data set [3]: Drug concentration in nucleus of human G401 cells assessed per million cells at 10 uM incubated for 2 hrs by UPLC-MS analysis. The class given is ADME, subcellular. Particulars: g-401, 2 h.
The nature of data set [4]: Cmax in Swiss albino mouse at 150 mg/kg, ip measured after 0.08 to 24 hrs. Type of data set: ADME, organism-based. Particulars: in vivo. The arrangement: route intraperitoneal, time 0.08-24 hrs, dose 150 mg/kg.
A short description of data set [5]: Time at which plasma concentration stays above cellular IC50 for inhibition of EZH2 in Swiss albino mouse at 50 mg/kg, PO. The class given is organism-based. The conditions noted are these: in vivo.
The nature of data set [6]: Time at which plasma concentration stays above cellular IC50 for inhibition of EZH2 in Swiss albino mouse at 50 to 150 mg/kg, ip. The class given is organism-based. The conditions noted are these: in vivo, dose 50-150 mg/kg.
A short description of data set [7]: Time at which plasma concentration stays above cellular IC50 for inhibition of EZH2 in Swiss albino mouse at 15 mg/kg, ip. Type of data set: organism-based. Particulars: in vivo.
Data set [8] deals with T2, Histone-lysine N-methyltransferase EZH2 (Homo sapiens, UniProt Q15910). The data set can be described thus: Inhibition of EZH2 in PRC2 complex (unknown origin) using biotinylated peptide as substrate in presence of S-adenosylmethionine.
T2 sequence (Q15910 whole entry): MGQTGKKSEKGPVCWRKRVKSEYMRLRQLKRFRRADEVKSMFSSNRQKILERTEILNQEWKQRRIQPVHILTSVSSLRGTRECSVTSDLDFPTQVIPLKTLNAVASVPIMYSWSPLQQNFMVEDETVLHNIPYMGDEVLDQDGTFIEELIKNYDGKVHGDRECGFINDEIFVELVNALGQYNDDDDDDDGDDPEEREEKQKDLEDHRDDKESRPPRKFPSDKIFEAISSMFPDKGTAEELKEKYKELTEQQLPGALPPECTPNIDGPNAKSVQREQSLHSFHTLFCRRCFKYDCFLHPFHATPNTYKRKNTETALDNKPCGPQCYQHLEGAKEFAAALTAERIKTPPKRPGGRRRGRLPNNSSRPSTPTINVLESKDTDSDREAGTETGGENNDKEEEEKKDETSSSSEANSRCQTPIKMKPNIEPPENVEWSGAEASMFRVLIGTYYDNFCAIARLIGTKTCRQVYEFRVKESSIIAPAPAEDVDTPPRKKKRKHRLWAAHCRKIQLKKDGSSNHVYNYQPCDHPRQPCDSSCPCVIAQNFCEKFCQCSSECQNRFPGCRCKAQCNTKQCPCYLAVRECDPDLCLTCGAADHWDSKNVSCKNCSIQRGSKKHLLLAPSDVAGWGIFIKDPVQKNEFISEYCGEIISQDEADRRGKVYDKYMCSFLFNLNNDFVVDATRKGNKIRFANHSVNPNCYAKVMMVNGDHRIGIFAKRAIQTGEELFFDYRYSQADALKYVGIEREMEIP
In data set [9] the target is T1, Polycomb protein EED. The data set can be described thus: Binding affinity to EED (unknown origin) by TR-FRET based binding assay. In general terms: In TR-FRET formats the signal depends on donor and acceptor labels being close together.
The target in data set [10] is T2, Histone-lysine N-methyltransferase EZH2. In words: Inhibition of EZH2 in PRC2 complex (unknown origin) expressed in Sf9 cells using histone H3 (21 to 44)-lys (biotin) and SAM as substrate incubated for 90 mins by radiometric scintillation proximity assay. For orientation: SPA uses beads or plates that emit light when radiolabelled molecules are held near them.

Data set [11] shares this target. In words: Inhibition of wild type EZH2 in human PRC2 complex using S-adenosylmethionine and biotinylated histone peptides as substrate.
For data set [12], the target named is T1, Polycomb protein EED. In words: Displacement of OG(488) labeled probe from GST-tagged EED (unknown origin) incubated for 1 hr by lanthaScreen TR-FRET method.
Data set [13] addresses T1, Polycomb protein EED. The data set can be described thus: Displacement of 3-FAM from N-terminal 6His-tagged full length EED (unknown origin) expressed in Escherichia coli Rosetta2 BL21(DE3)pLysS incubated for 30 mins by fluorescence polarization assay.
Data set [14] deals with von Hippel-Lindau disease tumor suppressor/Polycomb protein EED (Homo sapiens) (UniProt O75530+P40337). The data set can be described thus: Induction of VHL-mediated EED degradation in human HeLa cells at 5 uM incubated for 24 hrs by Western blot analysis relative to control. Type of data set: cell-based.
Chain of von Hippel-Lindau disease tumor suppressor/Polycomb protein EED (Homo sapiens) (O75530 2-441 limits assumed): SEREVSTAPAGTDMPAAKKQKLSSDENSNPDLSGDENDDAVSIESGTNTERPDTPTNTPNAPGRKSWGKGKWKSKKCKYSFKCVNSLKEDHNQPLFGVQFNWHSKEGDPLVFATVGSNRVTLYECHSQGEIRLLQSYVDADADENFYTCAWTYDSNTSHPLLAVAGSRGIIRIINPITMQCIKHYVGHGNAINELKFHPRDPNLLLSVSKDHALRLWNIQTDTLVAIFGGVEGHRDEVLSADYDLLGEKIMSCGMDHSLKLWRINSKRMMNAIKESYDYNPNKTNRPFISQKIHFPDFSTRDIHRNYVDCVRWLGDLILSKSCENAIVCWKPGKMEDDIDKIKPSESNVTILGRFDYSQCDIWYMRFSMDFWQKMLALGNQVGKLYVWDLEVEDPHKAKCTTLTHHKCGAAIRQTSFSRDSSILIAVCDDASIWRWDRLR
Chain of von Hippel-Lindau disease tumor suppressor/Polycomb protein EED (Homo sapiens) (P40337 whole entry partner): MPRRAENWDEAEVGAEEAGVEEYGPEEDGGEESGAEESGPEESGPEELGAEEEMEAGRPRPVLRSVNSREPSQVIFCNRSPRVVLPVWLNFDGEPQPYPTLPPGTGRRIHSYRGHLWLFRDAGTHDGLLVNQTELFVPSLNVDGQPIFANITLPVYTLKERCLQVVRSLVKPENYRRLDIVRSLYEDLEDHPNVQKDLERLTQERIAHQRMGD
A short description of data set [15]: Plasma concentration in SCID mouse xenografted with human G-401 cells at 125 mg/kg, po BID administered for 21 days and measured at 3 hrs post dose on day 21 by LC-MS/MS analysis. The conditions noted are these: time 21 day. Type of data set: ADME, organism-based.
The target of data set [16] is T3, Histone-lysine N-methyltransferase EZH1 (Homo sapiens, UniProt Q92800).
T3 sequence (Q92800 whole entry): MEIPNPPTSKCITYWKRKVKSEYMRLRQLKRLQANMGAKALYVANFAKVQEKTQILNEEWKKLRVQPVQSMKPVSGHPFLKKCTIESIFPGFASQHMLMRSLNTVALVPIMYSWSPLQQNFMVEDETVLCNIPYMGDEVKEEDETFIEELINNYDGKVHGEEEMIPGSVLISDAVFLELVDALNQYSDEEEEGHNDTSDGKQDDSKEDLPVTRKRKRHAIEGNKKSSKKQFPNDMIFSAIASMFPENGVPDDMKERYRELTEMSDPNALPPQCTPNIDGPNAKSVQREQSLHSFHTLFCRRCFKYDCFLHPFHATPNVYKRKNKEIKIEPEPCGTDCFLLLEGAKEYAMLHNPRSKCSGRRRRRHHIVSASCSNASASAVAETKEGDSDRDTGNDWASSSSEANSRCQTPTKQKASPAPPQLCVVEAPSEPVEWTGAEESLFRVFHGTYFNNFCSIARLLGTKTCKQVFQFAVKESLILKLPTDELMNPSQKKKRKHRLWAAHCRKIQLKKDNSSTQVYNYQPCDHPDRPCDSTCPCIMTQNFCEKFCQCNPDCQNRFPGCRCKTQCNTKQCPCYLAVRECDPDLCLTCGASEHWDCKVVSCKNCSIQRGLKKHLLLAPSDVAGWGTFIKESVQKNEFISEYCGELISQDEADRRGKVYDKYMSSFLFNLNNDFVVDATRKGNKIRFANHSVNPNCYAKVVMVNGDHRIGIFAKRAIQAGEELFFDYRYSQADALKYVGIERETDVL
The data set can be described thus: Inhibition of EZH1 in PRC2 complex (unknown origin) using biotinylated peptide as substrate in presence of S-adenosylmethionine.

Data set [17] addresses T1, Polycomb protein EED. The data set can be described thus: Binding affinity to EED in PRC2 complex (unknown origin) using H3K27me0 (21 to 44 residue) peptide as substrate by LC-MS analysis.
Data set [18] deals with T1, Polycomb protein EED. The data set can be described thus: Displacement of UNC5114-biotin tracer ligand from N-terminal 6His-tagged EED (1 to 441 residues) (unknown origin) expressed in Escherichia coli Rosetta2 BL21(DE3)pLysS cells measured after 1 hr by TR-FRET analysis.
Data set [19] is described as follows: Plasma concentration in mouse xenografted with human Karpas-422 cells at 40 mg/kg, po. Type of data set: ADME, organism-based. Particulars: in vivo.
The nature of data set [20]: Plasma concentration in Swiss albino mouse at 50 mg/kg, ip measured up to 24 hrs by LC-MS/MS analysis. The class given is ADME, organism-based.

As for `Cc1ncccc1-c1cnc(NCc2c(F)ccc3c2CCO3)n2cnnc12`, the inhibition in vivo at 30 mg/kg in the data set with CT26 is 59%.
The compound `Cc1nc(CCC(=O)NCCOc2ccc(OCC(=O)N[C@H](C(=O)N3C[C@H](O)C[C@H]3C(=O)NCc3ccc(-c4scnc4C)cc3)C(C)(C)C)cc2)ccc1-c1cnc(NCc2c(F)ccc3c2CCO3)n2cnnc12` had a GI50 with KARPAS-422 of 45 nM. Moreover, the Drug uptake in data set [1] is 4.69 pmol; in data set [3], 37.2 pmol. For the same compound, at Polycomb protein EED [2], the Kd is less than 1 nM.
In the data set on KARPAS-422, `Cc1nc(CCC(=O)NCCCCC(=O)N[C@H](C(=O)N2C[C@H](O)C[C@H]2C(=O)NCc2ccc(-c3scnc3C)cc2)C(C)(C)C)ccc1-c1cnc(NCc2c(F)ccc3c2CCO3)n2cnnc12` gave a concentration for 50% growth inhibition (GI50) of 57 nM. Moreover, the Drug uptake is listed as 0.03 pmol in [1] and 0.79 pmol in data set [3]. In addition, the dissociation constant Kd on Polycomb protein EED [2] was less than 1 nM.
In the case of `CCCc1cc(C)[nH]c(=O)c1CNC(=O)c1cc(-c2ccc(N3CCN(C(C)C)CC3)nc2)cc2c1cnn2C(C)C`, the peak level in data set [4] (Cmax) was 12 µM. Also, the Time in [5] turned out to be 20 h; in [6], 24 h; in data set [7] it was 12 h. For the same compound, the IC50 in [8] came out at 2 nM.
For the compound `CN(C)[C@H]1CN(C2CCc3cccc(F)c32)C[C@@H]1c1cn(C)c2ccccc12` (stereo not given in full), at Polycomb protein EED [9], the affinity corresponds to a Ki of 11 nM.
For the compound `CCCc1cc(C)[nH]c(=O)c1CNC(=O)c1cc(-c2ccc(N3CCN(C)CC3)nc2)nc2c1cnn2C(C)C`, in data set [10], the IC50 was 11 nM.
Consider `Cc1cc(C)c(CNC(=O)c2cc(-c3ccc4c(c3)OCCO4)nc3c2cnn3C(C)C)c(=O)[nH]1`, for which the Ki in [11] came out at 310 nM.
In the case of `CN(C)[C@H]1CN(Cc2ccccc2)C[C@@H]1c1ccc(N2CCN(S(C)(=O)=O)CC2)cc1`, the Ki at Polycomb protein EED [12] was found to be 1830 nM.
Compound `COC(=O)[C@H](C)NC(=O)[C@H](Cc1ccccc1)NC(=O)[C@H](CCCC[N+](C)(C)C)NC(=O)[C@H](CCCNC(=N)N)NC(=O)[C@@H](N)CCC(N)=O` (H-QR[Lys(Me3)]FA-OMe) registered an IC50 on Polycomb protein EED [13] of 14800 nM.
In data set [14], `Cc1ncsc1-c1ccc(CNC(=O)[C@@H]2C[C@@H](O)CN2C(=O)[C@@H](NC(=O)CCCNC(=O)c2ccc(-c3cnc(NCc4ccco4)n4cnnc34)cc2)C(C)(C)C)cc1` yielded an Activity of 80%.
`Cc1cc(C)c(CNC(=O)c2cc(-c3ccc(CN4CCOCC4)cc3)cc3c2cnn3C(C)C)c(=O)[nH]1` yielded a Ki in data set [11] of 80 nM.
`CNC(=O)CCc1ccc(-c2cnc(NCc3c(F)ccc4c3CCO4)n3cnnc23)c(C)n1`: in the data set with KARPAS-422, the GI50 came to 14 nM. In addition, the Drug uptake in data set [1] is 0.34 pmol; in data set [3] it was 0.19 pmol.
Take `Cc1cc(C)c(CNC(=O)c2cc(-c3ccc(CN4CCOCC4)cc3)cc3c2cnn3C2CCCC2)c(=O)[nH]1`: in data set [15], the concentration at 504 h is 8 µM. Further, the concentration for half-maximal inhibition (IC50) in [16] turned out to be 45 nM.
In the case of `CS(=O)(=O)c1ccc(-c2cnc(NCc3ccco3)n3cnnc23)cc1`, the figures for the IC50 on Polycomb protein EED [17] and on Polycomb protein EED [18] were 23.4 nM and 45 nM, respectively. Besides, in [19], the concentration was more than 30 µM.
`Cc1cc(C)c(CNC(=O)c2cc(-c3ccc(N4CCN(CCNC(=O)CC56CC7CC(CC(C7)C5)C6)CC4)nc3)cc3c2cnn3C(C)C)c(=O)[nH]1` displayed a concentration at 24 h in [20] of more than 1 µM.

A word on the GI50: it is the concentration at which growth is held to half of that of the control. Usually Kd stands for the free concentration of one partner at which half of the binding sites on the other are occupied at equilibrium, for simple one-to-one binding. A lower Kd goes with tighter binding. A word on the Cmax: it is the highest concentration seen after dosing. For orientation: IC50 means the concentration needed to halve the response being measured. In general, Ki refers to the dissociation constant of the complex between target and ligand, obtained from inhibition or displacement. Read a high Ki as a looser hold on the target.
